Among the data in PubChem BioAssay (NCI) are TGI and GI50 values, retold here.

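Grown in 96-well plates, cells were treated for 48 hours with each compound at five concentrations. Insufficient inhibition: endpoint recorded as highest concentration tested. GI50: concentration for 50% inhibition of growth. TGI: concentration producing complete growth inhibition.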

Test systems include T-47D breast; NCI-H460 lung; SK-MEL-28 melanoma; RXF 393 renal; SN12C renal; HCT-116 colon; SNB-19 CNS; NCI-H522 lung; COLO 205 colon; MOLT-4 leukemia; NCI-H226 lung; LOX IMVI melanoma; NCI-H23 lung; OVCAR-5 ovarian; BT-549 breast.
Holding throughout (experiment): inhibition of tumour cell growth, NCI panel, 48 h

For the compound `O=C1NC(=O)C23C(=O)NC(=O)C12C1C=CC3CC1` (stereo unspecified), the TGI in the assay with T-47D breast, in the assay on NCI-H460 lung, in the assay on SK-MEL-28 melanoma, with RXF 393 renal, with SN12C renal and in the assay with HCT-116 colon was > 10 µM throughout. Besides, the TGI with SNB-19 CNS, in the assay on NCI-H522 lung, in the assay on COLO 205 colon, in the assay on MOLT-4 leukemia, in the assay with NCI-H226 lung and with LOX IMVI melanoma was > 10 µM in each case. Moreover, the TGI in the assay on NCI-H23 lung was > 10 µM.

In the case of `O=c1[nH]nc(Cc2ccc(Cl)cc2)n1CCO`, the TGI in the assay with T-47D breast, with NCI-H460 lung, in the assay on SK-MEL-28 melanoma, in the assay with OVCAR-5 ovarian, in the assay with SN12C renal and with HCT-116 colon was > 100 µM throughout. Moreover, the TGI in the assay with SNB-19 CNS, in the assay on NCI-H522 lung, with COLO 205 colon, in the assay on MOLT-4 leukemia, in the assay with NCI-H226 lung and with LOX IMVI melanoma was > 100 µM in each case. In addition, the TGI with NCI-H23 lung and with BT-549 breast was > 100 µM each time.

For the compound `c1cc2nnc1SCCSCCCSCCS2`, the TGI in the assay with T-47D breast, in the assay on NCI-H460 lung, in the assay with SK-MEL-28 melanoma, with OVCAR-5 ovarian, with RXF 393 renal and in the assay on SN12C renal was > 100 µM each time. Also, the TGI in the assay on HCT-116 colon, with SNB-19 CNS, in the assay with NCI-H522 lung, in the assay on COLO 205 colon, with MOLT-4 leukemia and in the assay on NCI-H226 lung was > 100 µM each time. The TGI with LOX IMVI melanoma and in the assay with NCI-H23 lung was > 100 µM throughout.

Turning to `CN(C)c1ccc(C2=C([O-])c3cc(-[n+]4ccccc4)ccc3C2=O)cc1`, the TGI with NCI-H460 lung, in the assay with SK-MEL-28 melanoma, in the assay on OVCAR-5 ovarian, with RXF 393 renal, in the assay with SN12C renal and in the assay on HCT-116 colon was > 100 µM in each case. For the same compound, the TGI in the assay with SNB-19 CNS, in the assay with NCI-H522 lung, in the assay on COLO 205 colon, with MOLT-4 leukemia, in the assay with NCI-H226 lung and in the assay on LOX IMVI melanoma was > 100 µM throughout. The TGI in the assay on NCI-H23 lung and with BT-549 breast was > 100 µM each time.

As to `OCCCN=C1N=C(Cl)/C(=C\c2ccccc2)N1`, the TGI in the assay on T-47D breast, in the assay with SK-MEL-28 melanoma, in the assay on OVCAR-5 ovarian, with RXF 393 renal, in the assay with SN12C renal and in the assay on HCT-116 colon was > 100 µM throughout. The TGI with SNB-19 CNS, in the assay on NCI-H522 lung, in the assay on COLO 205 colon, with MOLT-4 leukemia, in the assay on NCI-H226 lung and with LOX IMVI melanoma was > 100 µM in each case. Moreover, the TGI in the assay on NCI-H23 lung was > 100 µM.

Consider `CCC12CN(C(=O)OC)C3C(Br)C1CCC(=O)C32` (stereo unspecified), for which the TGI with T-47D breast, in the assay on NCI-H460 lung, in the assay on SK-MEL-28 melanoma, in the assay on OVCAR-5 ovarian, in the assay with RXF 393 renal and in the assay on SNB-19 CNS was > 100 µM each time. The TGI in the assay with NCI-H522 lung, with COLO 205 colon, in the assay on MOLT-4 leukemia, in the assay on NCI-H226 lung, with LOX IMVI melanoma and in the assay on NCI-H23 lung was > 100 µM in each case.

In the case of `CN1C(CC(O)c2ccccc2)CCCC1CC(O)(c1ccccc1)c1ccccc1` (stereo unspecified), the TGI in the assay on T-47D breast amounted to 52.7 µM; with SK-MEL-28 melanoma, 30.9 µM; in the assay on OVCAR-5 ovarian, 32.7 µM; in the assay on RXF 393 renal it was 28.9 µM; in the assay with SN12C renal, 32.3 µM; in the assay with HCT-116 colon it was 29.1 µM. The TGI with SNB-19 CNS was found to be 36.3 µM; with NCI-H522 lung it was 42.3 µM; in the assay on COLO 205 colon, 34.2 µM; with MOLT-4 leukemia, 54.9 µM; in the assay with NCI-H226 lung, 38.5 µM; with LOX IMVI melanoma, 41.5 µM. The compound further displayed a TGI with NCI-H23 lung of 35.8 µM.

In the case of `CCCCCCCCCc1cc(=O)c2c(O)cc(O)cc2o1`, the TGI with T-47D breast amounted to 51.1 µM; with NCI-H460 lung, 50.6 µM; with SK-MEL-28 melanoma, 52.2 µM; with OVCAR-5 ovarian, 32 µM; in the assay with RXF 393 renal, 31.3 µM; with SN12C renal it was 38.9 µM. The TGI was found to be 47.6 µM with HCT-116 colon; 34.7 µM in the assay on SNB-19 CNS; 31.5 µM with NCI-H522 lung; 54.2 µM with COLO 205 colon; 22.3 µM in the assay on MOLT-4 leukemia; 36 µM in the assay with NCI-H226 lung. In addition, the TGI in the assay on LOX IMVI melanoma turned out to be 44.7 µM; with NCI-H23 lung, 34.2 µM.

Take `O=C(O)c1ccc2[nH]c(=O)oc2c1`: the TGI with NCI-H460 lung, in the assay on SK-MEL-28 melanoma, with OVCAR-5 ovarian, in the assay with RXF 393 renal, in the assay with SN12C renal and with HCT-116 colon was > 100 µM throughout. Further, the TGI in the assay on SNB-19 CNS, with COLO 205 colon, in the assay on MOLT-4 leukemia, with NCI-H226 lung, with LOX IMVI melanoma and in the assay on NCI-H23 lung was > 100 µM each time. Further, the TGI in the assay on BT-549 breast was > 100 µM.

On to `CCOC(=O)c1nc2ccc(C(F)(F)F)cc2nc1NCc1ccc(F)cc1`, for which the TGI in the assay on T-47D breast was 84.8 µM; with NCI-H460 lung, 75.4 µM; in the assay with SK-MEL-28 melanoma, > 100 µM; in the assay with OVCAR-5 ovarian, > 100 µM; in the assay with RXF 393 renal it was > 100 µM; in the assay on SN12C renal, > 100 µM. Moreover, the TGI with HCT-116 colon was > 100 µM; in the assay on SNB-19 CNS, > 100 µM; in the assay with NCI-H522 lung it was 88.9 µM; in the assay on COLO 205 colon it was 81 µM; in the assay on MOLT-4 leukemia, > 100 µM; with NCI-H226 lung it was > 100 µM. The TGI in the assay on LOX IMVI melanoma and with NCI-H23 lung was > 100 µM throughout.

Regarding `COc1ccc(/C=C2/C(=O)N(/C=C3\C(=O)Oc4ccccc4C3=O)C(=NC(C)=O)N2C)cc1OC`, the TGI in the assay with T-47D breast, in the assay on NCI-H460 lung, in the assay with SK-MEL-28 melanoma, with OVCAR-5 ovarian, with RXF 393 renal and in the assay with SN12C renal was > 100 µM each time. The TGI with HCT-116 colon, in the assay on SNB-19 CNS, in the assay with NCI-H522 lung, in the assay on COLO 205 colon, in the assay on MOLT-4 leukemia and in the assay on NCI-H226 lung was > 100 µM each time. In addition, the TGI with LOX IMVI melanoma and in the assay with NCI-H23 lung was > 100 µM throughout. Also, the GI50 with SNB-19 CNS is > 100 µM.

For the compound `Cc1[nH]c2[nH]c(=S)nc(NC(N)=S)c2c1Cc1ccccc1`, the TGI in the assay on T-47D breast was 89.4 µM; in the assay with NCI-H460 lung, > 100 µM; with SK-MEL-28 melanoma it was 48.6 µM; in the assay with OVCAR-5 ovarian it was > 100 µM; in the assay with SN12C renal it was > 100 µM; with HCT-116 colon, > 100 µM. Moreover, the TGI in the assay on SNB-19 CNS is > 100 µM; in the assay on COLO 205 colon, 34 µM; with MOLT-4 leukemia it was > 100 µM; with NCI-H226 lung it was > 100 µM; in the assay with LOX IMVI melanoma it was 55.4 µM; in the assay on NCI-H23 lung, > 100 µM. For the same compound, the TGI in the assay on BT-549 breast was 36.3 µM.

Take `Cc1ccc(C2SCc3nc4ccccc4n32)cc1` (stereo unspecified): the TGI was > 100 µM in the assay on T-47D breast; > 100 µM with NCI-H460 lung; > 100 µM in the assay with SK-MEL-28 melanoma; > 100 µM in the assay with OVCAR-5 ovarian; 6.33 µM in the assay with RXF 393 renal; 38.6 µM in the assay with SN12C renal. The TGI is 14 µM with HCT-116 colon; > 100 µM in the assay with SNB-19 CNS; 85.6 µM in the assay on NCI-H522 lung; 3.45 µM with COLO 205 colon; 15.3 µM with MOLT-4 leukemia; 6.55 µM with NCI-H226 lung. The TGI amounted to 40.6 µM with LOX IMVI melanoma and 24.3 µM in the assay with NCI-H23 lung.

Turning to `COc1cccc(C=C(C#N)C#N)c1OC`, the TGI with NCI-H460 lung, in the assay with SK-MEL-28 melanoma, with OVCAR-5 ovarian, in the assay on RXF 393 renal, in the assay with SN12C renal and in the assay on HCT-116 colon was > 100 µM each time. Besides, the TGI in the assay on SNB-19 CNS, in the assay on NCI-H522 lung, in the assay on COLO 205 colon, in the assay on MOLT-4 leukemia, with NCI-H226 lung and in the assay with NCI-H23 lung was > 100 µM throughout. In the assay on BT-549 breast, the TGI was > 100 µM.

Take `CC(C)C1COC(C(C)(C)C2=N[C@@H](C(C)C)CO2)=N1` (stereo partly specified): the TGI with NCI-H460 lung, in the assay on SK-MEL-28 melanoma, in the assay with OVCAR-5 ovarian, with RXF 393 renal, in the assay on SN12C renal and in the assay on HCT-116 colon was > 100 µM each time. In addition, the TGI with SNB-19 CNS, with NCI-H522 lung, with COLO 205 colon, with MOLT-4 leukemia, in the assay on NCI-H226 lung and in the assay with LOX IMVI melanoma was > 100 µM in each case. The TGI in the assay on NCI-H23 lung was > 100 µM.

As for `CN(C)c1cccc2c(S(=O)(=O)NCCCNCCN)cccc12`, the TGI in the assay with T-47D breast is > 100 µM; in the assay on NCI-H460 lung it was > 100 µM; in the assay with SK-MEL-28 melanoma it was > 100 µM; in the assay with OVCAR-5 ovarian, > 100 µM; with RXF 393 renal, 75 µM; with SN12C renal, > 100 µM. Also, the TGI in the assay with HCT-116 colon is > 100 µM; in the assay on SNB-19 CNS, > 100 µM; with NCI-H522 lung, > 100 µM; in the assay on COLO 205 colon it was 32.8 µM; in the assay on MOLT-4 leukemia, 41.1 µM; in the assay with NCI-H226 lung it was > 100 µM. Also, the TGI with LOX IMVI melanoma and in the assay with NCI-H23 lung was > 100 µM each time.
